From patent US20080058398A1, “Compounds” (priority 2006, published 2008)
Structures can show the parent of a compound that is named as a salt. Blank lines part the entries; values can stand above or below the compound they belong to.

How the values were obtained:
[1] = biological target: D3 (Homo sapiens, UniProt P35462); test: GTPγS scintillation proximity assay (GTPγS-SPA), antagonist format; type: biochemical; conditions: higher than Enantiomer 1
Description: Functional potency and intrinsic activity of compounds of this invention can be measured by the following GTPγS scintillation proximity assay (GTPγS-SPA). Cells used in the study are Chinese Hamster Ovary (CHO) Cells.
Cell membranes are prepared as follows. Cell pellets are resuspended in 10 volumes of 50 mM HEPES, 1 mM EDTA pH 7.4, using KOH. On the day the following proteases are added to the buffer just prior to giving the homogenisation buffer.
25 ug/mL Bacitracin (Sigma B0125)−1000×stock=25 mg/mL in buffer
The cells are homogenised by 2×15 second bursts in a 1 litre Glass Waring blender in a class two biohazard cabinet. The resulting suspension is spun at 500 g for 20 mins (Beckman T21 centrifuge: 1550 rpm). The supernatant is withdrawn with a 25 mL pipette, aliquotted into pre-chilled centrifuge tubes and spun at 48,000 g to pellet membrane fragments (Beckman T1270: 23,000 rpm for 30 mins). The final 48,000 g pellet is resuspended in Homogenisation Buffer, (4× the volume of the original cell pellet). […] Protein content in the membrane preparations is evaluated with the Bradford protein assay.
The final top concentration of test drug is 3 uM in the assay and 11 points serial dilution curves 1:4 in 100% DMSO are carried out using a Biomek FX. […] Assay plates are counted on a Viewlux, 613/55 filter, for 5 min., between 2-6 hours after the final addition. […]

[2] = biological target: dopamine D3 receptors (Homo sapiens, UniProt P35462); test: affinity for dopamine receptors (D3); type: binding
dopamine D3 receptors, sequence (P35462 whole entry): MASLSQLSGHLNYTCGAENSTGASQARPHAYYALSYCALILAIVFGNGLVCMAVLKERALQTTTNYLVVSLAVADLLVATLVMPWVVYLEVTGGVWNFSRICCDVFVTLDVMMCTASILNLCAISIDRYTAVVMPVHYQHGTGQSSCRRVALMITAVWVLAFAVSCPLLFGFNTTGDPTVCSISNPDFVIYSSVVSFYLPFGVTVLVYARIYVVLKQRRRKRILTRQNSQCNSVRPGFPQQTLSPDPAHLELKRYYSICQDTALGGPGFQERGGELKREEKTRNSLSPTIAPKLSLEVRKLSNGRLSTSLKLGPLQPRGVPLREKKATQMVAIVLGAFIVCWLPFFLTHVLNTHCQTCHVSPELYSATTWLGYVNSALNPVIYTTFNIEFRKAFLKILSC

[3] = biological target: D2 receptors (Homo sapiens, UniProt P14416); test: affinity for dopamine receptors (D2); type: binding
D2 receptors, sequence (P14416 whole entry): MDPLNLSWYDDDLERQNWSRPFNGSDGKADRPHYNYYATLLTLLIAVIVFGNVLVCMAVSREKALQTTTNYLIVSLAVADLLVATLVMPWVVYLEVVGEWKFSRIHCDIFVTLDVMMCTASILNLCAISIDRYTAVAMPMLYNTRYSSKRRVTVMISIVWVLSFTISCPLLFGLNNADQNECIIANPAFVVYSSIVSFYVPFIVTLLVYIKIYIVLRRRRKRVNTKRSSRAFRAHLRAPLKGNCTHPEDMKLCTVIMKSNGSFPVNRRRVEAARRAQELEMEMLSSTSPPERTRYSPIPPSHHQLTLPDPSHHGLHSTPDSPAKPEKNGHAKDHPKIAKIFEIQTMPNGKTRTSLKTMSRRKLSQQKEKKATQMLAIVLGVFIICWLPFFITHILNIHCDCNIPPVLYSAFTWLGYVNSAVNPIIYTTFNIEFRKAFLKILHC

[4] = solid state accelerated stability (appearance, assay and total impurities by HPLC)
Description: The solid state accelerated condition adopted were 40° C./75% RH (Relative Humidity) closed and exposed, and 50° C./amb RH (Ambient Relative Humidity) closed under air atmosphere.
At one month time point the following samples have been analysed for the appearance, assay and total impurities.
Assay and total impurities tests have been performed by HPLC with fast gradient method.

D3, sequence (P35462 whole entry): as the sequence (P35462 whole entry) above

Structure (SMILES): Cc1ncoc1-c1nnc(SCCCN2C[C@@H]3C[C@]3(c3ccc(C(F)(F)F)cc3F)C2)n1C (single isomer, unassigned) [Enantiomer 2]
fpKi (D3) difference [1]: > 1 log-unit
affinity for dopamine D3 receptors [2]: exhibit affinity
affinity for dopamine D3 versus D2 receptors ([2]; D3 compared with D2): greater affinity for dopamine D3 than for D2 receptors
affinity for dopamine D2 receptors [3]: exhibit affinity

Structure (SMILES): Cc1ncoc1-c1nnc(SCCCN2C[C@@H]3C[C@]3(c3ccc(C(F)(F)F)cc3F)C2)n1C.O=C(O)C(O)C(O)C(=O)O [Example 1, (1S,5R)-1-[2-fluoro-4-(trifluoromethyl)phenyl]-3-(3-{[4-methyl-5-(4-methyl-1,3-oxazol-5-yl)-4H-1,2,4-triazol-3-yl]thio}propyl)-3-azabicyclo[3.1.0]hexane (2R,3R) tartrate]
stability in comparison with the hydrochloride salt [4]: improved stability
total impurities ([4]; after 1 month, at any stability condition tested): around 0.5 % a/a

Structure (SMILES): Cc1ncoc1-c1nnc(SCCCN2C[C@@H]3C[C@]3(c3ccc(C(F)(F)F)cc3F)C2)n1C [Preparation 7, (1S,5R)-1-[2-Fluoro-4-(trifluoromethyl)phenyl]-3-(3-{[4-methyl-5-(4-methyl-1,3-oxazol-5-yl)-4H-1,2,4-triazol-3-yl]thio}propyl)-3-azabicyclo[3.1.0]hexane hydrochloride]
change of total impurities ([4]; at any investigated stability condition): increase of total impurities

stability in comparison with the hydrochloride salt [4]: improved stability
Structure (SMILES): Cc1ncoc1-c1nnc(SCCCN2CC3CC3(c3ccc(C(F)(F)F)cc3F)C2)n1C (centres unmarked) [the tartrate, 1-[2-fluoro-4-(trifluoromethyl)phenyl]-3-(3-{[4-methyl-5-(4-methyl-1,3-oxazol-5-yl)-4H-1,2,4-triazol-3-yl]thio}propyl)-3-azabicyclo[3.1.0]hexane]
